The nature of this data set: gradient 5% acetonitrile 3 min, to 50% in 2 min, to 85% in 15 min, held 3 min, 100 µL/min. Particulars: column: Zorbax Extend-C18 2.1 x 50 mm; eluents: water / acetonitrile, 0.1% formic acid. The essentials:
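Using water and acetonitrile that each contained 0.1% formic acid, mixtures of ~100 pure standards were separated at 100 μL/min on a Zorbax Extend-C18 column (2.1 × 50 mm, 1.8 μm). The HPLC fed a quadrupole time-of-flight mass spectrometer working in positive and negative ionization mode, with dead and dwell volumes of 40 μL and 900 μL. Data were acquired over 3 months. Retention time was read from computationally picked adduct peaks after manual inspection of each.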
`Cc1ccc(C)c(NC(=O)c2c(O)c3cccnc3n(-c3ccc(F)cc3)c2=O)c1` showed an RP-LC retention time of 1360 s.

As to `COc1ccc(-c2cn3c(CCC(=O)NCc4ccco4)csc3n2)cc1`, the RP-LC retention time was found to be 637 s.

Take `CCn1ccc2c(cc(C(=O)Nc3ccc(C)c(C)c3)n2C)c1=O`: the RP-LC retention time amounted to 824 s.

In turn, `CCOc1cccc(-c2noc(CN3C(=O)COc4cc(C)ccc43)n2)c1` gave an RP-LC retention time of 1130 s.

In the case of `Cc1cc(C)n(CCC(=O)NCc2cccnc2Oc2ccccc2)n1`, the RP-LC retention time was 706 s.

For `COc1cc(N2CCN(S(=O)(=O)c3cccc(C(F)(F)F)c3)CC2)nc(OC)n1`, the RP-LC retention time worked out at 947 s.

With `CCS(=O)(=O)Nc1ccc(-c2noc(COc3ccc(Cl)cc3)n2)cc1`, the RP-LC retention time is 1010 s.

In turn, `COc1ccc(OC)c(NC(=O)N2CCC3(CC2)N=C(c2ccc(Cl)cc2)C(=O)N3)c1` had an RP-LC retention time of 922 s.

With `CC(=O)N(Cc1nn(C)c2c1CN(S(=O)(=O)c1ccc3c(c1)CCC3)CC2)c1ccccc1`, the RP-LC retention time was 868 s.

As to `CN1C(=O)COc2cc(-c3noc(C(=O)N4CCCC4)n3)ccc21`, the RP-LC retention time amounted to 746 s.

Turning to `CSc1ccc(-c2noc(CN3C(=O)COc4cc(C)ccc43)n2)cc1`, the RP-LC retention time is 1130 s.

`O=C(Cn1nc2c(N3CCN(c4ccccc4)CC3)nccn2c1=O)Nc1cccc(Cl)c1` yielded an RP-LC retention time of 964 s.

Molecule `O=C([C@@H]1C[C@H](F)CN1C(=O)Nc1cccc(C(F)(F)F)c1)N1CCCCC1` gave an RP-LC retention time of 804 s.

`COCc1nc2nccc(-c3ccc(OC)cc3F)n2n1` gave an RP-LC retention time of 711 s.

As for `COc1ccc2[nH]cc(CCNC(=O)c3c(-c4ccccn4)noc3C)c2c1`, the RP-LC retention time worked out at 846 s.

`COC(=O)c1ccc(CSc2nnc(NC(=O)c3snnc3C)s2)o1` displayed an RP-LC retention time of 743 s.

Regarding `Cc1ccc(Cl)cc1N1CCN(C(=O)Cn2nc(C(=O)N3CCCC3)c3ccccc32)CC1`, the RP-LC retention time amounted to 1010 s.

Turning to `CCN1CCN(CCCNC(=O)C(C)n2c(=O)c(C(F)(F)F)nc3cc(C)c(C)cc32)CC1` (stereo not drawn), the RP-LC retention time was determined as 649 s.

Molecule `O=c1ccc(-c2ccc(F)cc2)nn1Cc1nc(-c2cccc(Cl)c2)no1` returned an RP-LC retention time of 1090 s.

`CSc1ccccc1CN1CCC(CNC(=O)C(=O)NCc2ccc(F)cc2)CC1` came in with an RP-LC retention time of 595 s.

In turn, `COc1ccc(C(=O)Nc2nc3c(s2)Cc2c(Br)ccc(OC)c2-3)cc1OC` gave an RP-LC retention time of 1100 s.

`O=C(Nc1ccc(F)cc1F)NC1CCN(c2ccc(F)cc2)C1=O` (stereo not drawn) had an RP-LC retention time of 823 s.

Regarding `Cn1cc(CC(=O)NCc2ccc(Cl)cc2)c2cccnc21`, the RP-LC retention time is 706 s.

For `Cc1nn(Cc2ccc(C(=O)NCC3CC3)cc2)c(C)c1S(=O)(=O)N1CCC(C)CC1`, the RP-LC retention time was determined as 888 s.

Regarding `Cc1ccc(CN2C(=O)CN(S(C)(=O)=O)CC2(C)C(=O)NCc2ccc(F)cc2)cc1` (stereo not drawn), the RP-LC retention time amounted to 836 s.

`CCOc1ccc(C(C)NC(=O)C2CCN(c3cnc4nccnc4c3)CC2)cc1` (stereo not drawn) came in with an RP-LC retention time of 712 s.

Molecule `CC(C)n1cnnc1CC1CCN(C(=O)C2CCN(S(=O)(=O)N3CCOCC3)CC2)CC1` registered an RP-LC retention time of 614 s.

In the case of `Cn1c(CCC(=O)NCc2ccc(C(F)(F)F)cc2)nc2ccccc2c1=O`, the RP-LC retention time turned out to be 825 s.

As for `CCOC(=O)Cc1ccc(NC(=O)NC2CCN(c3cc(C)cc(C)c3)C2=O)cc1` (stereo not drawn), the RP-LC retention time amounted to 888 s.

`CCc1ccccc1NC(=O)CSc1nnc2c3cc(-c4ccc(C)cc4)nn3ccn12`: the RP-LC retention time turned out to be 989 s.

The molecule `O=C(NCC1CCCO1)c1cc(=O)n(Cc2ccc(Cl)cc2)c2ccccc12` (stereo not drawn) yielded an RP-LC retention time of 815 s.

As to `CCN1CCCC1CN(CC(=O)N1CCNCC1)S(=O)(=O)c1ccc(C(C)C)cc1` (stereo not drawn), the RP-LC retention time came to 604 s.

`O=C(Nc1cccc(C(F)(F)F)c1)NC1CCN(c2cc(N3CCCC3)cnn2)C1` (stereo not drawn) showed an RP-LC retention time of 617 s.

Molecule `Cc1nnc(NC(=O)CN2CC(c3nc(C4CC4)no3)C2)s1` showed an RP-LC retention time of 537 s.

Molecule `CCc1nnc([C@@H]2CC(F)(F)CN2C(=O)c2cc(C)no2)o1` had an RP-LC retention time of 686 s.

`O=C(Cc1cccnc1)N1CCCn2nc(-c3ccc(F)cc3)cc2C1` had an RP-LC retention time of 537 s.

Molecule `O=C(CCCCCN1CCN(c2ccccc2-c2ccccc2)CC1)NC1CCCc2ccccc21` (stereo not drawn) had an RP-LC retention time of 926 s.

For `CSc1ccc(CNC(=O)Cc2cn(C)c3ncccc23)cc1`, the RP-LC retention time amounted to 686 s.

On to `CC(C)NC(=O)C1CCCN(c2nc3ncn(CC(=O)NCc4cccs4)c(=O)c3s2)C1` (stereo not drawn), for which the RP-LC retention time is 660 s.

The molecule `CC12CC(Br)(Br)C(=O)C3C1CCCC32` yielded an RP-LC retention time of 1100 s.

Consider `O=C(NCCc1c[nH]c2ccccc12)c1ccc(N2C(=O)CCS2(=O)=O)cc1Cl`, for which the RP-LC retention time was found to be 777 s.

In turn, `O=C(NCc1ccccn1)C1CCN(C(=O)c2ncn3c2COC(c2ccc(F)cc2)C3)CC1` (stereo not drawn) displayed an RP-LC retention time of 622 s.

In turn, `COCCn1cc2c3c(cccc31)CN(C(=O)Nc1cc(Cl)c(OC)cc1OC)CC2` gave an RP-LC retention time of 993 s.

For the molecule `Cn1c(=O)c(=O)n(C)c2cc(N3CCCC3)c(NC(=O)C3CC3)cc21`, the RP-LC retention time was found to be 614 s.

Molecule `O=C(NCc1ccco1)C1CCN(c2nnc(-c3ccccc3)o2)CC1` had an RP-LC retention time of 718 s.

In the case of `CCN1CCc2nc(NC(=O)C3CCN(S(=O)(=O)c4cccs4)CC3)sc2C1`, the RP-LC retention time was 634 s.

In the case of `CCCN1C(=O)COc2ccc(-c3noc(C4CC(=O)N(c5ccccc5)C4)n3)cc21` (stereo not drawn), the RP-LC retention time was 948 s.

Consider `Cc1[nH]c(=O)[nH]c(=O)c1CC(=O)Nc1cccc(NS(C)(=O)=O)c1`, for which the RP-LC retention time was 549 s.

In the case of `COc1cccc(-c2ccnc3nc(Cc4cc(F)cc(F)c4)nn23)c1`, the RP-LC retention time was 945 s.

Consider `Fc1ccccc1-c1nc(-c2cccc(-c3ccn[nH]3)c2)no1`, for which the RP-LC retention time came to 977 s.

In turn, `O=C(Cn1ncc2c(N3CCN(c4ccccn4)CC3)ncnc21)Nc1ccccc1C(F)(F)F` registered an RP-LC retention time of 610 s.

`CCCCCNC(=O)c1ccc(Oc2nccnc2N2CCSCC2)cc1`: the RP-LC retention time was 1030 s.

`CN(CCc1ccc(Cl)c(Cl)c1)CC(O)COc1ccc(NS(C)(=O)=O)cc1` (stereo not drawn): the RP-LC retention time amounted to 715 s.

Molecule `CC1CCN(CCCNC(=O)C2c3ccccc3C(=O)N(C)C2c2cccs2)CC1` (stereo not drawn) gave an RP-LC retention time of 624 s.

Consider `CCOc1cc(C(=O)Nc2cc(-c3cn4cccnc4n3)ccc2OC)cc(OCC)c1OCC`, for which the RP-LC retention time was 831 s.

For the molecule `CSc1ccc(CCNC(=O)c2ccc(CN3CC(=O)N4CCCCC4C3=O)cc2)cc1` (stereo not drawn), the RP-LC retention time was 738 s.

Turning to `Cc1noc(C2CN(C(=O)NC3CCCC3)CC23CCOCC3)n1` (stereo not drawn), the RP-LC retention time was 633 s.

Take `Cc1cc(Cl)ccc1S(=O)(=O)N1CCCC(Cn2cnc3cccnc32)C1` (stereo not drawn): the RP-LC retention time stood at 853 s.

On to `COCCN1CCn2cc(S(=O)(=O)Nc3ccc(C)cc3F)cc2C1=O`, for which the RP-LC retention time worked out at 740 s.

For `Cc1cc(=O)n(CC(=O)Nc2c(C)cccc2C)c(N2CCOCC2)n1`, the RP-LC retention time turned out to be 612 s.

`CC(=O)Oc1cc2c(C(=O)NCc3ccccn3)c(C)oc2c2ccccc12` showed an RP-LC retention time of 638 s.

On to `Cc1c(S(=O)(=O)N2c3ccccc3CC2C)cc(C(=O)N2CCC(C)CC2)n1C` (stereo not drawn), for which the RP-LC retention time worked out at 723 s.

The molecule `COc1ccc(-c2nnc3n2CCN(Cc2cnn(C)c2C)C3)cc1` gave an RP-LC retention time of 583 s.

`Cn1c(=O)sc2cc(S(=O)(=O)N3CCC(C(=O)NC4CCCC4)CC3)ccc21` showed an RP-LC retention time of 777 s.

The molecule `CCNC(=O)C1CCCN(c2nc3ncn(CC(=O)Nc4ccc(F)cc4F)c(=O)c3s2)C1` (stereo not drawn) yielded an RP-LC retention time of 670 s.

For `C=CCN1C(=O)COc2ccc(-c3csc(NC(=O)/C=C/c4ccc(OCC)c(OC)c4)n3)cc21`, the RP-LC retention time came to 1050 s.

For `Cc1sc(C)c(S(=O)(=O)Nc2ccc3c(c2)OCCO3)c1-c1cc(C(F)(F)F)on1`, the RP-LC retention time came out at 1070 s.

`COc1ccc2c(c1)C1(CCN(C(=O)Cc3ccccc3Cl)C1)C(=O)N2` (stereo not drawn): the RP-LC retention time was determined as 773 s.

Regarding `CCc1cccc(NC(=O)N2CCCC2c2nc(-c3ccc(OC)cc3)no2)c1` (stereo not drawn), the RP-LC retention time amounted to 925 s.

For `Cc1cc(C)n(-c2ccc(C(=O)NCc3cc(F)cc(F)c3)cn2)n1`, the RP-LC retention time was determined as 943 s.

`CCCN1C(=O)COc2cc(-c3noc(C(=O)NCC4CCCO4)n3)ccc21` (stereo not drawn) came in with an RP-LC retention time of 841 s.

For `Cc1ccc(C(C)C)c(OCC(=O)Nc2ccc(C(=O)O)cc2)c1`, the RP-LC retention time came out at 929 s.

On to `Cc1ccccc1-c1noc(-c2cccn(CC(=O)NC(C)C)c2=O)n1`, for which the RP-LC retention time turned out to be 761 s.

Turning to `CC1CCN(S(=O)(=O)c2ccc3c(c2)CCCC(=O)N3CC(=O)NC2CCCCC2)CC1`, the RP-LC retention time stood at 987 s.

`CCCN1CCN(c2cc(C(=O)O)c3cc(NS(=O)(=O)c4ccc(C)cc4C)ccc3n2)CC1` returned an RP-LC retention time of 937 s.

The molecule `CCOc1ccc(-n2ccn3c(CCCC(=O)N4CCN(c5ccccn5)CC4)nnc3c2=O)cc1` had an RP-LC retention time of 606 s.

As for `Cc1ccc(CNS(=O)(=O)c2cc(-c3nc(C(C)(C)C)cs3)cs2)o1`, the RP-LC retention time was 1190 s.

Molecule `Cn1ncc2c3ccccc3n(CC(=O)NCCCN3CCC(N4CCCCC4)CC3)c2c1=O` had an RP-LC retention time of 527 s.

The values above are taken from the METLIN SMRT retention time set (Domingo-Almenara et al. 2019).
